In patent US20240116985A1, “STAPLED PEPTIDES AND METHODS THEREOF” (priority 2020, published 2024):
Starred links: 1 amine or outer side, 2 acyl side, 3 side chain; linkers in the order of their positions; H or OH if unused. Positions of bridges follow the written chain, without caps; N, C: chain ends. Non-standard residues stand in square brackets, D forms with d. Residues, ends and D or L forms follow the SMILES beside them. X3 = O=C([C@]1(CC=[*:3])CCCN1[*:1])[*:2]; Bta = N[C@@H](Cc1csc2ccccc12)C(=O)O; tBuAla = CC(C)(C)C[C@H](N)C(=O)O; 3Thi = N[C@@H](Cc1ccsc1)C(=O)O; R5 = C=CCCC[C@@](C)(N)C(=O)O; S5 = C=CCCC[C@](C)(N)C(=O)O; Aib = CC(C)(N)C(=O)O

target: T1, full-length beta-Catenin (Uniprot ID P35222) (Homo sapiens, UniProt P35222); assay: Fluorescence polarization IC50 (beta-catenin / 5FAM-TCF4 10-53 competition); assay type: binding; conditions: fluorescence polarization, beta-catenin; read-out: FP EC50
T1 construct: 10 nM full-length beta-Catenin (Uniprot ID P35222)
T1 sequence (P35222 1-781): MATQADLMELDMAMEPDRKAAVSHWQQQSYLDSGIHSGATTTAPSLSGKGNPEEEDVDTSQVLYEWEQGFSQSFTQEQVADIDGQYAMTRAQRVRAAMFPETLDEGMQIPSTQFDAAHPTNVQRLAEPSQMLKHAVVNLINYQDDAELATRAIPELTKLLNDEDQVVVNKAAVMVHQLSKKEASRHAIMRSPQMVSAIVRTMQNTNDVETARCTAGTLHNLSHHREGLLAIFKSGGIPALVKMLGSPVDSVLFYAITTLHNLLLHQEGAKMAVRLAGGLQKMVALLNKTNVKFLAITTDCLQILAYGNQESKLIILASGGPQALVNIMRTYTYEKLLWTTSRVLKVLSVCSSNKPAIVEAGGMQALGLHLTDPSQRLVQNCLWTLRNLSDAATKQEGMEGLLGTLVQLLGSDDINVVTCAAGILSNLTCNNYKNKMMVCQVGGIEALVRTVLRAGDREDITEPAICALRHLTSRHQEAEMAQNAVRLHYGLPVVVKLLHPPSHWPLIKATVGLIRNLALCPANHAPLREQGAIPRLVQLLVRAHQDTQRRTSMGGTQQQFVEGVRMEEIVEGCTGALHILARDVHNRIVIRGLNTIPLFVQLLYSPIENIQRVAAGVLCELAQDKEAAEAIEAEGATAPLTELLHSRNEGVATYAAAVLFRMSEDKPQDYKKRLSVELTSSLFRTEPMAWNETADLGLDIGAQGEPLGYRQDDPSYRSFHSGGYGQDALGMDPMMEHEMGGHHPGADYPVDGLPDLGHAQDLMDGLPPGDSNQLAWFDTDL

SMILES	IC50 [nM]
CC(=O)N1CCC[C@]12CC=CCCCC1(CCCC=CCCCOC(=O)N3CC[C@@](C(=O)N[C@@H](Cc4ccccc4Cl)C(=O)N[C@@H](Cc4csc5ccccc45)C(=O)N[C@@H](CCC(N)=O)C(N)=O)(C3)NC(=O)[C@H](CC(N)=O)NC(=O)[C@H](Cc3ccccc3)NC(=O)[C@H](C)NC(=O)[C@H](C)NC(=O)[C@H](CN(CC(=O)O)Cc3c(F)c(F)c(F)c(F)c3F)NC(=O)[C@H](CC(=O)O)NC1=O)NC(=O)[C@H](CC(C)(C)C)NC(=O)[C@H](CC(=O)O)NC2=O (stereo partly drawn) [I-1450, Ac-PL3-Asp-Npg-B5-Asp-[Pfbn]GA-Ala-Ala-Phe-Asn-PyrS2-2C1F-BztA-Gln-NH2]	11

same assay, conditions: fluorescence polarization; read-out: beta-Catenin FP IC50

SMILES	IC50 [nM]
CC(=O)N1CCC[C@]12CC=CCCCC1(CCCC=CCCCOC(=O)N3CC[C@@](C(=O)N[C@@H](Cc4ccccc4)C(=O)N[C@@H](Cc4csc5ccccc45)C(=O)N[C@@H](CCC(N)=O)C(N)=O)(C3)NC(=O)[C@H](CC(N)=O)NC(=O)[C@H](Cc3ccccc3)NC(=O)[C@H](C)NC(=O)[C@H](C)NC(=O)[C@H]([C@@H](C)O)NC(=O)[C@H](CC(N)=O)NC1=O)NC(=O)[C@H](CC(C)(C)C)NC(=O)[C@H](CC(=O)O)NC2=O (stereo partly drawn) [I-1735, Ac-PL3-Asp-Npg-B5-Asn-Thr-Ala-Ala-Phe-Asn-PyrS2-Phe-BztA-Gln-NH2]	667
CC(=O)N1CCC[C@]12CC=CCCCC1(CCCC=CCCCOC(=O)N3CC[C@@](C(=O)N[C@@H](Cc4ccsc4)C(=O)N[C@@H](Cc4csc5ccccc45)C(=O)N[C@@H](CCC(N)=O)C(N)=O)(C3)NC(=O)[C@H](CCC(=O)N3CCC(N4CCN(C)CC4)CC3)NC(=O)[C@H](Cc3ccccc3)NC(=O)[C@H](C)NC(=O)[C@H](C)NC(=O)[C@H](CN(CC(=O)O)CC(F)(F)F)NC(=O)[C@H](CC(=O)O)NC1=O)NC(=O)[C@H](CC(C)(C)C)NC(=O)[C@H](CC(=O)O)NC2=O (stereo partly drawn) [I-1937, Ac-PL3-Asp-Npg-B5-Asp-TfeGA-Ala-Ala-Phe-[4MePpzPip]GlnR-PyrS2-3Thi-BztA-Gln-NH2]	9
CC(=O)N1CCC[C@]12CC=CCCCC1(CCCC=CCCCOC(=O)N3CC[C@@](C(=O)N[C@@H](Cc4ccccc4Cl)C(=O)N[C@@H](Cc4csc5ccccc45)C(=O)N[C@@H](CCC(N)=O)C(N)=O)(C3)NC(=O)[C@H](CC(N)=O)NC(=O)[C@H](Cc3ccccc3)NC(=O)[C@H](C)NC(=O)[C@H](C)NC(=O)[C@H](CN(CC(=O)O)Cc3c(F)c(F)c(F)c(F)c3F)NC(=O)[C@H](CC(=O)O)NC1=O)NC(=O)[C@H](CC(C)(C)C)NC(=O)[C@H](CC(=O)O)NC2=O (stereo partly drawn) [I-1450, Ac-PL3-Asp-Npg-B5-Asp-[Pfbn]GA-Ala-Ala-Phe-Asn-PyrS2-2C1F-BztA-Gln-NH2]	11
CC(=O)N1CCC[C@]12CC=CCCCC1(CCCC=CCCCOC(=O)N3CC[C@@](C(=O)N[C@@H](Cc4ccccc4)C(=O)N[C@@H](Cc4csc5ccccc45)C(=O)N[C@@H](CCO)C(N)=O)(C3)NC(=O)[C@H](CC(N)=O)NC(=O)[C@H](Cc3ccccc3)NC(=O)[C@H](C)NC(=O)[C@H](CCCCNC(C)C)NC(=O)[C@H](CCC(N)=O)NC(=O)[C@H](CC(=O)O)NC1=O)NC(=O)[C@H](CC1CCCCC1)NC(=O)[C@H](CCO)NC2=O (stereo partly drawn) [I-1932, Ac-PL3-Hse-Cha-B5-Asp-Gln-iPrLys-Ala-Phe-Asn-PyrS2-Phe-BztA-Hse-NH2]	285
CC(=O)N1CCC[C@]12CC=CCCCC1(CCCC=CCCCOC(=O)N3CC[C@@](C(=O)N[C@@H](Cc4ccccc4)C(=O)N[C@@H](Cc4csc5ccccc45)C(=O)N[C@@H](CCC(N)=O)C(N)=O)(C3)NC(=O)[C@H](CC(C)C)NC(=O)[C@H](Cc3ccccc3)NC(=O)[C@H](C)NC(=O)[C@H](CCO)NC(=O)[C@H]([C@@H](C)O)NC(=O)[C@H](CC(=O)O)NC1=O)NC(=O)[C@H](CC1CCCCC1)NC(=O)[C@H](CC(N)=O)NC2=O (stereo partly drawn) [I-2447, Ac-PL3-Asn-Cha-B5-Asp-Thr-Hse-Ala-Phe-Leu-PyrS2-Phe-BztA-Gln-NH2]	3250
CC(=O)N1CCC[C@]12CC=CCCCC1(CCCC=CCCCOC(=O)N3CC[C@@](C(=O)N[C@@H](Cc4ccsc4)C(=O)N[C@@H](Cc4csc5ccccc45)C(=O)N[C@@H](CCC(=O)N4CCC(N5CCCCC5)CC4)C(N)=O)(C3)NC(=O)[C@H](CC(C)C)NC(=O)[C@H](Cc3ccccc3)NC(=O)[C@H](C)NC(=O)[C@H](C)NC(=O)[C@H](CN(CC(=O)O)CC(F)(F)F)NC(=O)[C@H](CC(=O)O)NC1=O)NC(=O)[C@H](CC(C)(C)C)NC(=O)[C@H](CC(=O)O)NC2=O (stereo partly drawn) [I-1798, Ac-PL3-Asp-Npg-B5-Asp-TfeGA-Ala-Ala-Phe-Leu-PyrS2-3Thi-BztA-[4Pippip]GlnR-NH2]	12
CC(=O)N1CCC[C@]12CC=CCC1(CC=CCCCCOC(=O)N3CC[C@@](C(=O)N[C@@H](Cc4ccsc4)C(=O)N[C@@H](Cc4csc5ccccc45)C(=O)N[C@@H](CCC(N)=O)C(N)=O)(C3)NC(=O)[C@H](CC(C)C)NC(=O)[C@H](Cc3ccccc3)NC(=O)[C@H](C)NC(=O)[C@H](C)NC(=O)[C@H](CC(=O)O)NC(=O)[C@H](CC(=O)O)NC1=O)NC(=O)[C@H](CC(C)(C)C)NC(=O)[C@H](CC(=O)O)NC2=O (stereo partly drawn) [I-2157, Ac-PL3-Asp-Npg-B3-Asp-Asp-Ala-Ala-Phe-Leu-PyrS3-3Thi-BztA-Gln-NH2]	141
COC(=O)CC[C@@H]1NC(=O)[C@H](CC(=O)O)NC(=O)C2(CCCC=CCCCOC(=O)N3CC[C@@](C(=O)N[C@@H](Cc4ccsc4)C(=O)N[C@@H](Cc4csc5ccccc45)C(=O)N[C@@H](CCC(N)=O)C(N)=O)(C3)NC(=O)[C@H](CC(C)C)NC(=O)[C@H](Cc3ccccc3)NC(=O)[C@H](C)NC(=O)[C@H](C)NC1=O)CCCC=CC[C@]1(CCCN1C(C)=O)C(=O)N[C@@H](CC(=O)O)C(=O)N[C@@H](CC(C)(C)C)C(=O)N2 (stereo partly drawn) [I-2366, Ac-PL3-Asp-Npg-B5-Asp-[Me]GluE-Ala-Ala-Phe-Leu-PyrS2-3Thi-BztA-Gln-NH2]	1740
CC(=O)N1CCC[C@]12CC=CCCCC1(CCCC=CCCCOC(=O)N3CC[C@@](C(=O)N[C@@H](Cc4ccccc4Cl)C(=O)N[C@@H](Cc4csc5ccccc45)C(=O)N[C@@H](CCC(N)=O)C(=O)N[C@@H](C)CO)(C3)NC(=O)[C@H](CC(C)C)NC(=O)[C@H](Cc3ccccc3)NC(=O)[C@H](C)NC(=O)[C@H](C)NC(=O)[C@H](Cc3cccc(C(=O)O)c3)NC(=O)[C@H](CC(=O)O)NC1=O)NC(=O)[C@H](CC(C)(C)C)NC(=O)[C@H](CC(=O)O)NC2=O (stereo partly drawn) [I-1673, Ac-PL3-Asp-Npg-B5-Asp-3COOHF-Ala-Ala-Phe-Leu-PyrS2-2C1F-BztA-Gln-Alao1]	28
CC(=O)N1CCC[C@]12CC=CCCC[C@@](C)(C(=O)N[C@@H](CC(=O)O)C(=O)N[C@@H](CC(=O)O)C(=O)NC(C)(C)C(=O)N[C@@H](C)C(=O)N[C@@H](Cc1ccccc1)C(=O)N[C@]1(C)CCCC=CCCC[C@@](C)(C(=O)N[C@@H](C)C(N)=O)NC(=O)[C@H](Cc3csc4ccccc34)NC(=O)[C@H](Cc3ccsc3)NC(=O)[C@H](C)NC1=O)NC(=O)[C@H](CC(C)(C)C)NC(=O)[C@H](CC(=O)O)NC2=O [I-1781, Ac-PL3-Asp-Npg-S5-Asp-Asp-Aib-Ala-Phe-R5-Ala-3Thi-BztA-S5-Ala-NH2] (Ac-[X3]D[tBuAla][S5]DD[Aib]AF[R5]A[3Thi][Bta][S5]A-NH2; staple 1-4, 10-14 (inferred))	8450
CC(=O)N1CCC[C@]12CC=CCCCC1(CCCC=CCCCCCC[C@@](C)(C(=O)N[C@@H](Cc3ccccc3)C(=O)N[C@@H](Cc3csc4ccccc34)C(=O)N[C@@H](CCC(N)=O)C(N)=O)NC(=O)[C@H](CC(C)C)NC(=O)[C@H](Cc3ccccc3)NC(=O)[C@H](C)NC(=O)[C@H](C)NC(=O)[C@H](CCC(=O)O)NC(=O)[C@H](CC(=O)O)NC1=O)NC(=O)[C@H](CCC(C)C)NC(=O)[C@H](CC(=O)O)NC2=O (stereo partly drawn) [I-1536, Ac-PL3-Asp-Hleu-B5-Asp-Glu-Ala-Ala-Phe-Leu-S8-Phe-BztA-Gln-NH2]	42
CC(=O)N1CCC[C@]12CC=CCCCC1(CCCC=CCCCOC(=O)N3CC[C@@](C(=O)N[C@@H](Cc4ccsc4)C(=O)N[C@@H](Cc4csc5ccccc45)C(=O)N[C@@H](CCC(N)=O)C(N)=O)(C3)NC(=O)[C@H](CC(N)=O)NC(=O)[C@H](Cc3ccccc3)NC(=O)[C@H](C)NC(=O)[C@H](C)NC(=O)[C@H](CC(=O)O)NC(=O)[C@H](CC(=O)O)NC1=O)NC(=O)[C@H](CC(C)(C)C)NC(=O)[C@H](CO)NC2=O (stereo partly drawn) [I-1222, Ac-PL3-Ser-Npg-B5-Asp-Asp-Ala-Ala-Phe-Asn-PyrS2-3Thi-BztA-Gln-NH2]	511
CC(=O)N1CCC[C@]12CC=CCCCC1(CCCC=CCCCOC(=O)N3CC[C@@](C(=O)N[C@@H](Cc4ccccc4C(F)(F)F)C(=O)N[C@@H](Cc4csc5ccccc45)C(=O)N[C@@H](CCC(=O)N(C)C)C(=O)N[C@@H](C)C(N)=O)(C3)NC(=O)[C@H](CC(C)C)NC(=O)[C@H](Cc3ccccc3)NC(=O)[C@H](C)NC(=O)[C@H](C)NC(=O)[C@H](Cc3cccc(C(=O)O)c3)NC(=O)[C@H](CC(=O)O)NC1=O)NC(=O)[C@H](CC(C)(C)C)NC(=O)[C@H](CC(=O)O)NC2=O (stereo partly drawn) [I-2466, Ac-PL3-Asp-Npg-B5-Asp-3COOHF-Ala-Ala-Phe-Leu-PyrS2-2F3MeF-BztA-Me2Gln-Ala-NH2]	15
CC(=O)N1CCC[C@]12CC=CCCCC1(CCCC=CCCCOC(=O)N3CC[C@@](C(=O)N[C@@H](Cc4ccccc4)C(=O)N[C@@H](Cc4csc5ccccc45)C(=O)N[C@@H](CCC(N)=O)C(N)=O)(C3)NC(=O)[C@H](CC(C)C)NC(=O)[C@H](Cc3ccccc3)NC(=O)[C@H](C)NC(=O)[C@H](CCCCNC(C)C)NC(=O)[C@H]([C@@H](C)O)NC(=O)[C@H](CC(=O)O)NC1=O)NC(=O)[C@H](CCCCNC(C)C)NC(=O)[C@H](CC(N)=O)NC2=O (stereo partly drawn) [I-1591, Ac-PL3-Asn-iPrLys-B5-Asp-Thr-iPrLys-Ala-Phe-Leu-PyrS2-Phe-BztA-Gln-NH2]	3110
